Assay results reported in ChEMBL document CHEMBL2074017, “Distinct characteristics of organic cation transporters, OCT1 and OCT2, in the basolateral membrane of renal tubules” (Pharm Res, 2001).

Key:
[1] = target: T1, Solute carrier family 22 member 2 (Rattus norvegicus, UniProt Q9R0W2); assay type: functional, cell-based, MDCK
T1 sequence (Q9R0W2 whole entry): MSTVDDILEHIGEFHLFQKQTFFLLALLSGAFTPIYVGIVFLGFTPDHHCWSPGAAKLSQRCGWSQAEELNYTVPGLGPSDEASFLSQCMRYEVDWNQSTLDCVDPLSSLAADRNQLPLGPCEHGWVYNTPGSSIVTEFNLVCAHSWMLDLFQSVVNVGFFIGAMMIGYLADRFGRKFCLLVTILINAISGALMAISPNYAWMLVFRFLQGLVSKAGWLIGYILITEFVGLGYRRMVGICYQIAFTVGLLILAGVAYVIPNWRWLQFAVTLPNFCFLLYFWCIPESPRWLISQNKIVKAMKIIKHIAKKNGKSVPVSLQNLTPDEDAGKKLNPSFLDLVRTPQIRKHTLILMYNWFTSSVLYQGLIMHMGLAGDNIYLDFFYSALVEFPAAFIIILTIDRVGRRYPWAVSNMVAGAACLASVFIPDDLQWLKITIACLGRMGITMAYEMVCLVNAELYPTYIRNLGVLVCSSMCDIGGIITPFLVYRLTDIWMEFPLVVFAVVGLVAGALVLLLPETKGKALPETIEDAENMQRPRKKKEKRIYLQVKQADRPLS

[2] = target: T2, Solute carrier family 22 member 1 (Rattus norvegicus, UniProt Q63089); assay type: functional, cell-based, MDCK
T2 sequence (Q63089 whole entry): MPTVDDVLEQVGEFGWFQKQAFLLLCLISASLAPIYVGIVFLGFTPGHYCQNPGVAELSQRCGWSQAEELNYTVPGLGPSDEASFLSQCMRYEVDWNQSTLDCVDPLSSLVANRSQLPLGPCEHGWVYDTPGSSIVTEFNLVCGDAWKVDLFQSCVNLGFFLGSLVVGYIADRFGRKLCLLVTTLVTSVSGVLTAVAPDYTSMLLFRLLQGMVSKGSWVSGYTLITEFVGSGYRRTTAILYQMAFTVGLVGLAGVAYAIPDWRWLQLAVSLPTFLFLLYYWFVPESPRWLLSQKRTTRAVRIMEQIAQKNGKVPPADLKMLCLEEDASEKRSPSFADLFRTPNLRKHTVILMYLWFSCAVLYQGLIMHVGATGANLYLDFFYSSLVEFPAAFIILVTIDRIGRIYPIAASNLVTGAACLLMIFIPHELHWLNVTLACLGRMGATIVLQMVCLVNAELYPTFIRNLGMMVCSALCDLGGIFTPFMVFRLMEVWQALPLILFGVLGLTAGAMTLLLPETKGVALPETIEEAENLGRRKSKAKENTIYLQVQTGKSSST

[3] = target: T2, Solute carrier family 22 member 1; assay: TP_TRANSPORTER: inhibition of TEA uptake in OCT1-expressing MDCK cells; assay type: functional, cell-based
[4] = target: T1, Solute carrier family 22 member 2; assay: TP_TRANSPORTER: inhibition of TEA uptake in OCT2-expressing MDCK cells; assay type: functional, cell-based

SMILES | IC50 [1] [µM] | IC50 [2] [µM] | Ki [3] [µM] | Ki [4] [µM]
CCN(CC)CCNC(=O)c1ccc(NC(C)=O)cc1 [ACECAINIDE] | 5 | 8.8 | – | –
N=C(N)NC(=O)c1nc(Cl)c(N)nc1N [AMILORIDE] | – | – | 6.9 | 4.7
CN(C)CCC(c1ccc(Cl)cc1)c1ccccn1 (stereo not given) [CHLORPHENIRAMINE] | 26 | 14 | – | –
C[N+](C)(C)CCO [CHOLINE] | 1450 | 1450 | – | –
CC(C)N(CCC(C(N)=O)(c1ccccc1)c1ccccn1)C(C)C (stereo not given) [DISOPYRAMIDE] | – | – | 62 | 30
NCCc1ccc(O)c(O)c1 [DOPAMINE] | – | – | 603 | 347
CNC[C@H](O)c1ccc(O)c(O)c1 [EPINEPHRINE] | – | – | 1600 | 1190
NCCc1c[nH]cn1 [HISTAMINE] | – | – | 141 | 171
CN(C)CCCN1c2ccccc2CCc2ccccc21 [IMIPRAMINE] | 9.9 | 16 | – | –
CCN(CC)CCNC(=O)c1ccc(N)cc1 [PROCAINAMIDE] | – | – | – | 36
NCCc1c[nH]c2ccc(O)cc12 [SEROTONIN] | – | – | 390 | 242
CCCC[N+](CCCC)(CCCC)CCCC [TETRABUTHYLAMMONIUM] | 5.7 | 7.9 | – | –
C[N+](C)(C)C [TETRAMETHYLAMMONIUM] | 1670 | – | – | –
CCCCC[N+](CCCCC)(CCCCC)CCCCC [TETRAPENTYLAMMONIUM] | 1.7 | 1.3 | – | –
CCC[N+](CCC)(CCC)CCC [TETRAPROPYLAMMONIUM] | 39 | 23 | – | –
Cc1ncc(C[n+]2csc(CCO)c2C)c(N)n1 [THIAMINE ION] | – | – | 736 | 646
